16 compounds from patent US7989442B2, “Progesterone receptor modulators” (N.V. Organon, priority 2006, dated 2011) can be followed below.

One data set has as its system mature cyclic rats. The experiment in a line: Ovulation inhibition in rat after oral administration (in vivo progestagenic activity). Conditions: 96 h, minimal active dose: average number of ova reduced by 60% relative to placebo, oral administration for 1 complete cycle (4 days), read-out: MAD. On the procedure: Ovulation inhibition after oral administration of the compounds of the invention was studied in mature cyclic rats. Animals were treated with test compound (oral administration) for 1 complete cycle (4 days, from oestrus to pro-oestrus) and the number of ova in the oviduct was microscopically assessed at autopsy in the morning of the next (expected) oestrus. The average number of ova per rat was calculated; the minimal active dose (MAD) is defined as the level at which the average number of ova is reduced by 60% relative to placebo-treated animals.

The term melting point denotes the temperature of the solid-liquid transition.

Take `N#Cc1cc2c(cc1F)Oc1ccccc1[C@@H]1[C@@H](NC(=O)C(F)(F)F)CCCN21` (stereo in doubt) [Example 2, (−)-(cis)-N-(7-cyano-8-fluoro-1,3,4,14b-tetrahydro-2H-dibenzo [b,f]pyrido[1,2-d][1,4]oxazepin-1-yl)-2,2,2-trifluoroacetamide]: the minimal effective dose with mature cyclic rats was determined as 0.014 mg/kg.
`N#Cc1c(F)cc2c(c1Cl)N1CCC[C@H](NC(=O)C(F)(F)F)[C@H]1c1ccccc1O2` (stereo in doubt) [Example 3, (−)-(cis)-N-[6-chloro-7-cyano-8-fluoro-1,3,4,14b-tetrahydro-2H-dibenzo [b,f]pyrido[1,2-d][1,4]oxazepin-1-yl]-2,2,2-trifluoroacetamide]: the minimal effective dose in the data set on mature cyclic rats was found to be 0.08 mg/kg.
Still for that read-out and setting: the result for `N#Cc1c(F)cc2c(c1C#N)N1CCC[C@H](NC(=O)C(F)(F)F)[C@H]1c1ccccc1O2` (stereo in doubt) [Example 4, (−)-(cis)-N-(6,7-dicyano-8-fluoro-1,3,4,14b-tetrahydro-2H-dibenzo [b,f]pyrido[1,2-d][1,4]oxazepin-1-yl)-2,2,2-trifluoroacetamide] reads 0.02 mg/kg.
Consider `N#Cc1c(F)cc2c(c1Cl)N1CCC[C@H](NC(=O)C(F)(F)F)[C@H]1c1ccc(F)cc1O2` (stereo in doubt) [Example 5, (−)-(cis)-N-(6-chloro-7-cyano-8,12-difluoro-1,3,4,14b-tetrahydro-2H-dibenzo [b,f]pyrido[1,2-d][1,4]oxazepin-1-yl)-2,2,2-trifluoroacetamide], for which the melting point lay within 174 to 175 °C. In addition, the minimal effective dose in the data set on mature cyclic rats is at most 0.025 mg/kg.
As for `CC(=O)N[C@H]1CCCN2c3c(cc(F)c(C#N)c3Cl)Oc3cccc(F)c3[C@H]12` (stereo in doubt) [Example 6, (−)-(cis)-N-(6-chloro-7-cyano-8,14-difluoro-1,3,4,14b-tetrahydro-2H-dibenzo [b,f]pyrido[1,2-d][1,4]oxazepin-1-yl)acetamide], the minimal effective dose in the data set with mature cyclic rats is below 0.02 mg/kg.
Still for that read-out and setting: the result for `N#Cc1c(F)cc2c(c1Cl)N1CCC[C@H](NC(=O)C(F)(F)F)[C@H]1c1cccc(F)c1O2` (stereo in doubt) [Example 7, (−)-(cis)-N-(6-chloro-7-cyano-8,11-difluoro-1,3,4,14b-tetrahydro-2H-dibenzo [b,f]pyrido[1,2-d][1,4]oxazepin-1-yl)-2,2,2-trifluoroacetamide] reads 0.025 mg/kg.
As to `N#Cc1cc2c(cc1F)Oc1cccc(F)c1[C@@H]1[C@@H](NC(=O)C(F)(F)F)CCCN21` (stereo in doubt) [Example 8, (−)-(cis)-N-(7-cyano-8,14-difluoro-1,3,4,14b-tetrahydro-2H-dibenzo [b,f]pyrido[1,2-d][1,4]oxazepin-1-yl)-2,2,2-trifluoroacetamide], the minimal effective dose in the data set with mature cyclic rats came out at 0.01 mg/kg.
For `N#Cc1c(F)cc2c(c1Cl)N1CCC[C@H](NC(=O)C(F)(F)F)[C@H]1c1c(F)cccc1O2` (stereo in doubt) [Example 9, (−)-(cis)-N-(6-chloro-7-cyano-8,14-difluoro-1,3,4,14b-tetrahydro-2H-dibenzo [b,f]pyrido[1,2-d][1,4]oxazepin-1-yl)-2,2,2-trifluoroacetamide], in the data set on mature cyclic rats, the minimal effective dose was below 0.02 mg/kg.
Regarding `CC(=O)c1cccc2c1N1CCC[C@H](NC(=O)C(F)(F)F)[C@H]1c1ccccc1O2` [eutomer of example 52 of WO03/ 084963, reference compound], the minimal effective dose in the data set on mature cyclic rats is above 4 mg/kg.
On the same count and under the same terms, then `C=Cc1cccc2c1N1CCC[C@H](NC(=O)C(F)(F)F)[C@H]1c1ccccc1O2` [eutomer of example 54 of WO03/ 084963, reference compound], with above 4 mg/kg.
Turning to `N#Cc1cc(F)cc2c1N1CCC[C@H](NC(=O)C(F)(F)F)[C@H]1c1ccccc1O2` [eutomer of example 58 of WO03/ 084963, reference compound], the minimal effective dose in the data set on mature cyclic rats worked out at 0.38 mg/kg.
Consider `N#Cc1ccc2c(c1)N1CCC[C@H](NC(=O)C(F)(F)F)[C@H]1c1ccccc1O2` [eutomer of example 63 of WO03/ 084963, reference compound], for which the minimal effective dose in the data set on mature cyclic rats was around 4 mg/kg.
For the compound `CC(=O)N[C@H]1CCCN2c3c(ccc(Cl)c3Cl)Oc3ccccc3[C@H]12` [example 47 of WO03/ 084963, reference compound], the minimal effective dose in the data set on mature cyclic rats was above 4 mg/kg.
Consider `CC(=O)c1cc(F)cc2c1N1CCC[C@H](NC(=O)C(F)(F)F)[C@H]1c1ccccc1O2` [example 57 of WO03/ 084963, reference compound], for which the minimal effective dose in the data set with mature cyclic rats was above 4 mg/kg.
As to `C=Cc1cc(F)cc2c1N1CCC[C@H](NC(=O)C(F)(F)F)[C@H]1c1ccccc1O2` [example 59 of WO03/ 084963, reference compound], in the data set on mature cyclic rats, the minimal effective dose is above 4 mg/kg.
`Cc1cc(F)cc2c1N1CCC[C@H](NC(=O)C(F)(F)F)[C@H]1c1ccccc1O2` [example 60 of WO03/ 084963, reference compound]: the minimal effective dose with mature cyclic rats was around 1 mg/kg.
